# Measurements as given in patent US10478505B2, “Edible oils to enhance delivery of orally administered steroids” (The Regents of the University of California, priority 2011, dated 2019).
# “Also recorded” adds a separate entry of the source.
# Legend:
# NIH Swiss mice [1] = test: PTZ seizure threshold test (intravenous PTZ infusion); type: in vivo, mouse; conditions: for anticonvulsant activity in the PTZ seizure threshold test (seizure threshold): 50 mg/kg (5 mg/ml) and 100 mg/kg (10 mg/ml)
# Procedure: (§1) Animals. Male NIH Swiss mice (22-30 g) were housed four per cage. Animals were kept in a vivarium under controlled laboratory conditions (temperature, 22-26° C.; humidity, 40-50%) with an artificial 12-h light/dark cycle and free access to food and water. Animals were allowed to acclimate to the vivarium for ≥5 days. The experiments were performed during the light phase of the light/dark cycle after a ≥30-min period of acclimation to the experimental room. Animals were maintained in facilities fully accredited by the Association for Assessment and Accreditation of Laboratory Animal Care, and all studies were performed under protocols approved by the University of California, Davis, Institutional Animal Care and Use Committee the Animal Care and Use in strict compliance with the Guide for the Care and Use of Laboratory Animals of the National Research Council (National Academy Press, Washington, D.C.; on the internet at nap.edu/readingroom/books/labrats/).
# (§2) Test substances and drug administration. Solutions of allopreganolone (SAFC Pharma, Madison, Wis., U.S.A.) were made in miglyol (Neobee M5®, Spectrum Chemicals, Gardena, Calif.), canola oil (ConAgra Foods, Omaha, Nebr.) or peanut oil (Sigma-Aldrich, St. Louis, Mo.). The convulsant agent pentylenetetrazol (PTZ) (Sigma-Aldrich, St. Louis, Mo.) was dissolved in saline immediately before use and administered intravenously (i.v.). For the PTZ threshold test, allopregnanolone solutions were administered orally (p.o.) 30 min, 1 hr and 2 hr before PTZ infusion, in a volume equaling 10 ml/kg. For the 6-Hz seizure test, solutions of allopregnanolone in canola oil were administered in a volume equaling 20 ml/kg.
# PTZ seizure threshold test. The threshold for various behavioral seizure stages induced by the GABA receptor antagonist PTZ, was determined by infusing PTZ via a 27-gauge, 0.75-inch “butterfly” needle inserted into the lateral tail vein. The needle was secured to the tail vein by a narrow piece of adhesive tape, and the animal was permitted to move freely inside an inverted plastic container with free aeration from the top. PTZ (10 mg/ml) were infused at a constant rate of 0.5 ml/min using a 1-ml syringe (BD Biosciences, Franklin Lakes, N.J.) mounted on a Harvard infusion pump (Harvard Apparatus Inc., Holliston, Mass.). The syringe was connected to the needle by polyethylene tubing. The infusion was stopped at 3 min or at the onset of tonic extension, whichever occurred first. The thresholds to the onset of tonic hindlimb extension were determined by measuring the latency from the start of convulsant infusion to the onset of all the response. The threshold value (milligrams per kilogram) was determined according to the following formula: (infusion duration [seconds]×infusion rate [milliliters per minute]×convulsant drug concentration [milligrams per milliliter]×1000)/(60 s×weight of mouse [grams]).
# NIH Swiss mice [2] = test: 6-Hz seizure test; type: in vivo, mouse; conditions: dissolved in canola oil (10 mg/ml), 200 mg/kg, 32 mA for 3 s
# Procedure: as §1
# Test substances and drug administration. Solutions of allopreganolone (SAFC Pharma, Madison, Wis., U.S.A.) were made in miglyol (Neobee M5®, Spectrum Chemicals, Gardena, Calif.), canola oil (ConAgra Foods, Omaha, Nebr.) or peanut oil (Sigma-Aldrich, St. Louis, Mo.). […]
# 6-Hz seizure test. […] Animals were scored as protected or not protected. […]
# NIH Swiss mice [3] = test: PTZ seizure challenge (80 mg/kg PTZ s.c.); type: in vivo, mouse
# Procedure: (§3) NIH Swiss mice were fasted 2 hours prior to experiment participation. Allopregnanolone (ALP) was suspended in vehicle (Tween 80 or canola oil). The time point of maximal effect of ALP was established by gavaging ALP and scoring relevant behavioral parameters outlined in the Irwin Test. See, Sylvain Roux, et al., Current Protocols in Pharmacology, Unit Number: UNIT 10.10, DOI: 10.1002/0471141755.ph1010s27 Online Posting Date: January, 2005. Lethality, convulsion, tremor, Straub, abnormal gait, fear, sedation, reactivity to touch, loss of traction, loss of righting reflex were measured.
# Anticonvulsant potential of ALP was determined with PTZ seizure challenge. Oral gavage various ALP concentrations at 50 μl/10 g body weight, t=−45 min or t=−90 min, 80 mg/kg PTZ s.c. at t=0. Observe 30 min for seizure protection (absence of clonic spasms).
# NIH Swiss mice [4] = test: Irwin Test behavioral scoring (sedation); type: in vivo, mouse; conditions: 250 mg/kg in canola oil, oral
# Procedure: as §3
# [5] = Central nervous system effects of allopregnanolone in aqueous hydroxypropyl-beta-cyclodextrin solution; type: in vivo
# [6] = Dissolution of allopregnanolone in oils; type: physicochemical; conditions: three oils: miglyol, canola oil, peanut oil
# Procedure: as §2
# [7] = oral delivery in canola oil (FIG. 4)
smiles,measurement,setting,value
"CC(=O)[C@H]1CCC2C3CC[C@H]4C[C@H](O)CC[C@]4(C)C3CC[C@@]21C (stereo in doubt) [allopregnanolone, 1-(3-Hydroxy-10,13-dimethyl-2,3,4,5,6,7,8,9,11,12,14,15,16,17-tetradecahydro-1H-cyclopenta[a]phenanthren-17-yl)ethanone]",duration of anti-seizure activity,"NIH Swiss mice [1]; dissolved in canola oil and peanut oil, oral route",long-lasting anti-seizure activity
same,anti-seizure activity 120 to 240 min after administration,"NIH Swiss mice [1]; dissolved in canola oil or peanut oil, oral, 120 to 240 min after administration, in some cases",activity was also present
same,anti-seizure activity 30 min after administration,"NIH Swiss mice [1]; dissolved in canola oil or peanut oil, oral, 30 min after administration",no or only minimal activity
same,anti-seizure activity 60 min after administration,"NIH Swiss mice [1]; dissolved in canola oil or peanut oil, oral, 60 min after administration",strong activity
same,anticonvulsant activity in the PTZ seizure threshold test (seizure threshold),"NIH Swiss mice [1]; dissolved in canola oil, orally administered",activity was obtained; also recorded: time-dependent increase in seizure threshold
same,anticonvulsant activity in the PTZ seizure threshold test,"NIH Swiss mice [1]; dissolved in miglyol, orally administered, 100 mg/kg",no bioactivity; also recorded: no activity; also recorded: inactive
same,anticonvulsant activity in the PTZ seizure threshold test (seizure threshold),"NIH Swiss mice [1]; dissolved in peanut oil, orally administered",activity was obtained; also recorded: time-dependent increase in seizure threshold
same,activity in the 6-Hz seizure test,NIH Swiss mice [2],had activity
same,anticonvulsant activity in the pentylenetetrazol seizure test,"NIH Swiss mice [3]; 250 mg/kg in canola oil, oral",anticonvulsant activity
same,effective threshold dose,NIH Swiss mice [3]; [7],25 to 75 mg/kg
same,oral bioavailability,NIH Swiss mice [3]; [7],markedly enhances
same,sedation,NIH Swiss mice [4],profound sedation
same,central nervous system effects,[5]; high doses administered orally in aqueous solution of hydroxypropyl-beta-cyclodextrin,failed to produce central nervous system effects
same,central nervous system effects,[5]; parenteral administration as aqueous solution in hydroxypropyl-beta-cyclodextrin,readily causes central nervous system effects
same,dissolution in oils,[6],readily dissolve
